Measurements taken from ChEMBL document CHEMBL4619735, “Design, synthesis and anti-influenza A virus activity of novel 2,4-disubstituted quinazoline derivatives” (Bioorg Med Chem Lett, 2020).
Activity calls are given as the source filed them. The calls are words filed in the database; no cut-off is given here.

System: Influenza A virus
Assay: Antiviral activity against Influenza A virus A/WSN/33(H1N1) infected in human 293T cells assessed as inhibition of viral replication at 10 uM pretreated for 2 hrs followed by viral infection and measured after 24 hrs by Gaussia luciferase reporter gene assay
Assay type: functional, organism-based
Conditions: A/WSN/1933(H1N1), HEK-293T

SMILES	inhibition
O=C(COc1nc(N2CCCC2)nc2ccccc12)NC12CC3CC(CC(C3)C1)C2	inactive
O=C(NCCOc1nc(N2CCc3ccccc3C2)nc2ccccc12)c1ccccc1	Active
CC(=O)c1ccc(C(=O)NCCOc2nc(N3CCCC3)nc3ccccc23)cc1	inactive
O=C(COc1nc(N2CCCC2)nc2ccccc12)Nc1ccc2ccccc2c1	inactive
O=C(COc1nc(N2CCCC2)nc2ccccc12)NC1CC1	inactive
O=C(COc1nc(N2CCCC2)nc2ccccc12)Nc1nccs1	Active
CCOc1ccccc1CNC(=O)COc1nc(N2CCCC2)nc2ccccc12	Active
O=C(NCCOc1nc(N2CCCC2)nc2ccccc12)C1CCCCC1	inactive
NCCOc1nc(N2CCCC2)nc2ccccc12	inactive
O=C(NCCOc1nc(N2CCCC2)nc2ccccc12)c1ccccc1	Active
O=C(NCCOc1nc(N2CCCC2)nc2ccccc12)C1CC1	Active

System: Influenza A virus
Assay: Antiviral activity against Influenza A virus A/WSN/33(H1N1) infected in human 293T cells pretreated for 2 hrs followed by viral infection and measured after 24 hrs by Gaussia luciferase reporter gene assay
Assay type: functional, organism-based
Conditions: A/WSN/1933(H1N1), HEK-293T

SMILES	IC50 [µM]
O=C(NCCOc1nc(N2CCc3ccccc3C2)nc2ccccc12)c1ccccc1	4.19
NC(=O)c1ncn([C@@H]2O[C@H](CO)[C@@H](O)[C@H]2O)n1 [RIBAVIRIN]	15.4
O=C(COc1nc(N2CCCC2)nc2ccccc12)Nc1nccs1	39.4
O=C(COc1nc(N2CCc3ccccc3C2)nc2ccccc12)NCc1ccccc1	17.7
CCOC(=O)COc1nc(N2CCCC2)nc2ccccc12	16.6
CCOc1ccccc1CNC(=O)COc1nc(N2CCCC2)nc2ccccc12	17.7
COc1ccc(OC(=O)NCCOc2nc(N3CCCC3)nc3ccccc23)cc1	55.3
O=C(NCCOc1nc(N2CCCC2)nc2ccccc12)c1cccs1	18.2
O=C(NCCOc1nc(Cl)nc2ccccc12)c1ccccc1	48
O=C(NCCOc1nc(N2CCCC2)nc2ccccc12)c1ccc(C(F)(F)F)cc1	8.64
O=C(COc1nc(Cl)nc2ccccc12)NCc1ccccc1	26.5
O=C(O)COc1nc(N2CCCC2)nc2ccccc12	60.1
CN(C)c1nc(OCC(=O)Nc2ccccc2)c2ccccc2n1	3.7

System: Influenza A virus
Assay: Potency index, ratio of ribavirin IC50 to test compound IC50 for antiviral activity against Influenza A virus A/WSN/33(H1N1) infected in human 293T cells pretreated for 2 hrs followed by viral infection and measured after 24 hrs by Gaussia luciferase reporter gene assay
Assay type: functional, A/WSN/1933(H1N1), HEK-293T
Conditions: not given

SMILES	Ratio IC50
CN(C)c1nc(OCC(=O)Nc2ccccc2)c2ccccc2n1	4.1
